Laboratory results: patent US20230201217A1 (priority 2019, published 2023)
“And” between values parts separate entries of the source, which are not always exact repeats. Equal entries are not always repeated.

Legend:
monkeys = assay: Single-dose oral toxicity; format: in vivo, monkey
Protocol: Single doses up to 300-400 mg/kg and 800 mg/kg appeared to be generally well tolerated in monkeys and rats, respectively (one monkey treated with 400 mg/kg died in the 2-week GLP study on Day 1 of dosing). […] In mice, mortality was consistently seen following single doses 150 mg/kg. Preliminary 5-day repeat-dose range-finding studies were conducted in mice, rats and monkeys. The definitive 14-day studies in mouse and monkey yielded generally similar results to those observed in the 5-day studies.

mouse liver = assay: In vivo comet assay
Protocol: The comet assay (alkaline single cell gel electrophoresis) is a microgel electrophoretic technique that detects DNA damage in individual cells. DNA damage can be expressed as DNA single strand breaks, double strand breaks, and strand breaks induced by alkali labile sites. […] For this study, the liver was selected as the tissue for evaluation, since this tissue is expected to contain high concentrations of parent drug and metabolites following oral administration.
Male mice were administered oral doses of 0 (vehicle=5% dextrose), 50, 90 and 120 mg/kg/day by gavage according to the table below. Animals in groups 1-4 were dosed on three consecutive days and euthanized 3 to 4 hours after the last dose by CO2 inhalation. A separate group of animals were dosed with methyl methanesulfonate (MMS) which served as a positive control. Immediately following euthanasia, the liver was removed and collected from each animal.
In this study, comet tail migration, % tail DNA (also known as % tail intensity) and tail moment were determined for each animal/treatment group and served as parameters of DNA damage.

Solubility = format: physicochemical
Source text: 18-MC HCl can be supplied as a dry powder packaged in double plastic bags in an HDPE bottle with desiccant. The 18-MC HCl can be formulated at the clinical site into a solution for dosing patients. […] Based on the properties of the compound, it can also be formulated in a solid oral formulation (tablet, capsule, sachets, granules, etc.)
Most preferably, an oral dose of the composition is used. An oral dosing formulation was validated by a GLP study.

Pharmacokinetics in rats = format: in vivo, rat
Protocol: 18-MC is rapidly absorbed and distributed into the brain and fat tissues in rats dosed with 40 mg/kg p.o. or i.p. The estimated volume of distribution is 8 L/kg. 18-MC levels in fat were 4.2 μM and 2.5 μM at 2 hours and 24 hours, respectively. […] On oral administration, it appears that the major metabolites are either M4 or M5, depending on the animal species tested. M4 and M5 are the primary circulating drug species because they are present at proportions greater than 18-MC. […] In the animal species tested its half-life is less than 2 hours at lower doses. At high doses a long elimination phase is evident (ranging from 9 to 20 hours in rats). 18-MC is highly protein bound (95-98%).

male Sprague Dawley rats = assay: Modified Irwin test, definitive GLP study, male rats; format: in vivo, rat
Protocol: Only male rats were utilized in the assay, as no significant sex-specific effects have been noted in prior toxicology studies.
The dose volume for all groups was 20 mL/kg. Observations for the Irwin test were performed pre-dose (on the day of dosing) and at approximately (±5 minutes) 30, 90, 150, and 240 minutes post-dosing. Body temperature was measured and recorded during each Irwin observation period.

[1] = system: rats trained to self-administer cocaine; settings: 10-40 mg/kg i.p., cited from earlier work
[2] = system: polychromatic erythrocytes in mouse bone marrow; assay: Mouse bone marrow in vivo micronucleus assay
Protocol: Treatment resulted and clinical signs of lethargy and piloerection at doses of 200-400 mg/kg and in mortality of male and female ICR mice at doses of 300 and 400 mg/kg. The highest non-lethal dose was 250 mg/kg.
These doses were based upon prior toxicology data indicating higher doses were associated with mortality in this species. […] A positive control group received a single oral dose of 60 mg/kg cyclophosphamide on Day 2, the day prior to the scheduled euthanasia. Each group consisted of 6 males. Males only were used as no significant differences in response related to gender were expected based upon prior toxicology and toxicokinetic data. All animals were euthanized on Day 3, the day following the final dose and discarded following bone marrow collection.
All animals were observed twice daily for mortality and moribundity. Bone marrow collection for micronucleus evaluation was performed for 5 of the 6 animals in each group at the scheduled euthanasia (Day 3). All animals were discarded without necropsy. Bone marrow smears were prepared, and the coded slides were counted for polychromatic, normochromatic, and micronucleated polychromatic erythrocytes following the final bone marrow sample collection on Day 3.

[3] = system: animal substance use models; settings: i.p.; cited from earlier work
[4] = Plasma 18-MC concentration in rats, 5-day dosing self-administration study
Protocol: Blood samples were collected from animals immediately after their cocaine self-administration at approximately 2 hours post dose in the first day of dosing (Day 0), and the last day of dosing (Day 4).

CYP2D6 = CYP2D6 (Homo sapiens, UniProt P10635); settings: recombinant enzyme
Sequence of CYP2D6 (P10635 whole entry): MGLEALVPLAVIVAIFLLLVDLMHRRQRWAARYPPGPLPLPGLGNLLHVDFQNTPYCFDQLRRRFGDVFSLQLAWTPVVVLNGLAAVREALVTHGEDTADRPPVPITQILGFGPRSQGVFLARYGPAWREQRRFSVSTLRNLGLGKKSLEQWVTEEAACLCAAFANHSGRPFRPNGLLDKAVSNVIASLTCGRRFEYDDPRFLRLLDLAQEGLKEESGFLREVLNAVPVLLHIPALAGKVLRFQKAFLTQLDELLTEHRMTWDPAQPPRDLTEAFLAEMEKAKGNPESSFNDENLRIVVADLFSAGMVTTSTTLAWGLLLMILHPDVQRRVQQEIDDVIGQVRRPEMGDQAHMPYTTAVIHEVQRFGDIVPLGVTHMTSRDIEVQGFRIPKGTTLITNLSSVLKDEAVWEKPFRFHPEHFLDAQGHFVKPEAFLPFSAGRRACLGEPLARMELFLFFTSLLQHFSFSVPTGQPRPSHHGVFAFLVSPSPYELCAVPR
Protocol: Control incubations were performed for each assay with appropriate positive inhibitory controls.

[5] = Phase 1 first-in-human study, pharmacokinetics in plasma
Protocol: Fourteen normal, healthy volunteers were enrolled in the study. Seven volunteers were treated in the first cohort (3 placebo, 4 received a single dose of 20 mg of 18-MC) and seven in the second cohort (2 placebo, 5 received 8 mg as 4 mg doses of 18-MC administered at 0 and plus 10 hours). For Cohort A, volunteers were monitored in a hospital unit for 2 days (36 hours) days, and were followed up for safety at Days 3, 7 and 30. For Cohort B, volunteers were monitored in a hospital unit for 2 days (36 hours), and were followed up for safety at Days 3, 4, 7 and 30.
This study was designed as a randomized, double-blind, placebo-controlled, single-center Phase 1 first-in-human clinical trial. After screening, volunteers were admitted to the hospital for 36 hours. […] Study article was initiated on Day 1 and volunteers were discharged on Day 2. Cohort A were seen as outpatients on Days 3, 7 and 30. Cohort B were seen as outpatients on Days 3, 4, 7 and 30. 14 subjects were in the study, 5 male and 9 female.
For Cohort A, pharmacokinetic samples were obtained at baseline and at 0.5, 1.0, 2.0, 6.0, 12.0, 24, 36 hours, and 7 days post dose.
Samples underwent two analyses: A research assay (LG/MS/TOF) developed by MicroConstants, Inc., was used to collect the raw data. The first analysis was to quantitate 18-MG and the known metabolites M2, M4 and M5 (using standard curves included in the run). The second analysis compared the peak heights of 18-MG and all the metabolites that could be identified in terms of relative peak height (M1 through M10, and P1-P3).

[6] = Dose Day 0, post dose (~2 h), 600 mg/kg/day
[7] = cohort B, 4 mg PO at 0 and +10 hours

COCCC1CC2CN3CCc4c([nH]c5ccccc45)C(C(=O)OC)(C2)C13.Cl (centres unmarked) [18-MC HCl, 18-Methoxycoronaridine hydrochloride]
single dose generally well tolerated (monkeys): 300 to 400 mg/kg
mean % tail DNA (mouse liver; 90 mg/kg/day, vehicle 1.27+/−0.52): 2.60+/−0.7%
mouse comet assay result (mouse liver; 50, 90, 120 mg/kg/day, 3 days): negative
solubility in dimethyl sulfoxide (DMSO) (Solubility): freely soluble
maximum solubility (Solubility; 5% dextrose (pH 3.0)): 40 mg/mL
solubility in aqueous solution (Solubility; neutral and alkaline pH): poorly soluble
oral bioavailability (Pharmacokinetics in rats; 60 mg/kg): about 8%
Irwin: Increased pupil diameter, occurrence(s)/No. of males (male Sprague Dawley rats; 200 mg/kg): 1/6
Irwin: Increased touch response, occurrence(s)/No. of males (male Sprague Dawley rats; 200 mg/kg): 1/6
mean decrease in body temperature from pre-dose (male Sprague Dawley rats; 200 mg/kg p.o.): up to 1.5 °C
Irwin: Abnormal gait (walking low on limbs), occurrence(s)/No. of males (male Sprague Dawley rats; 400 mg/kg): 1/6
Irwin: Decreased alertness, occurrence(s)/No. of males (observation period, min) (male Sprague Dawley rats; 400 mg/kg): 1/6
Irwin: Increased pupil diameter, occurrence(s)/No. of males (male Sprague Dawley rats; 400 mg/kg): 1/6
mean decrease in body temperature from pre-dose (male Sprague Dawley rats; 400 mg/kg p.o.): ≤ 2.3 °C
Irwin: Abnormal gait (walking low on limbs), occurrence(s)/No. of males (male Sprague Dawley rats; 600 mg/kg): 1/6
Irwin: Diarrhea, occurrence(s)/No. of males (male Sprague Dawley rats; 600 mg/kg): 1/6
mean decrease in body temperature from pre-dose (male Sprague Dawley rats; 600 mg/kg p.o.): ≤ 2.3 °C
Irwin: Abnormal gait (waddling), occurrence(s)/No. of males (observation period, min) (male Sprague Dawley rats; 600 mg/kg, hydrochloride): 1/6 and 2/6 and 3/6 and 4/6
responding for cocaine ([1]; 15 minutes prior to session): significantly decreased
responding for water [1]: no effect
lethality ([2]; GLP, 120 mg/kg/day group, within 3 hours of dosing): Lethality was observed in a single animal
incidence of micro-nucleated polychromatic erythrocytes (MPCE) ([2]; non-GLP, 250 mg/kg and less): No significant increase
highest non-lethal dose ([2]; non-GLP, single oral dose, suspension in PBS pH 7.4, ICR mice): 250 mg/kg
lowest dosage that significantly reduces drug self-administration [3]: ≥ 10 mg/kg

COCC[C@H]1CC2CN3CCc4c([nH]c5ccccc45)[C@](C(=O)OC)(C2)[C@H]13 [18-MC, 18-methoxycoronaridine]
Plasma 18-MC concentration, Average [4, 6]: 11,442 ng/mL
Plasma 18-MC concentration, individual animals [4, 6]: 3,450 ng/mL and 12,600 ng/mL and 11,300 ng/mL and 13,900 ng/mL and 14,200 ng/mL and 13,200 ng/mL
Plasma 18-MC concentration, Average ([4]; Dose Day 4, post dose): 7,524 ng/mL
Plasma 18-MC concentration, individual animals ([4]; Dose Day 4, post dose): 9,030 ng/mL and 3,760 ng/mL and 8,040 ng/mL and 10,500 ng/mL and 6,290 ng/mL
Plasma 18-MC concentration, Average ([4]; Dose Day 4, pre dose): 2,998 ng/mL
Plasma 18-MC concentration, individual animals ([4]; Dose Day 4, pre dose): 3,840 ng/mL and 1,680 ng/mL and 3,020 ng/mL and 2,720 ng/mL and 3,730 ng/mL
IC50 (CYP2D6): > 100 µM
estimated volume of distribution (Pharmacokinetics in rats; 40 mg/kg p.o. or i.p.): 8 L/kg
oral bioavailability for total drug substance (AUC of 18-MC and its metabolites) (Pharmacokinetics in rats; 60 mg/kg): about 25%
18-MC level in fat (Pharmacokinetics in rats; 2 hours): 4.2 µM
18-MC level in fat (Pharmacokinetics in rats; 24 hours): 2.5 µM
bone marrow cytotoxicity and clastogenic activity ([2]; GLP, 50, 75, 120 mg/kg/day for 3 days): negative response
elimination half-life ([5]; 4 mg at 0 and +10 hours (8 mg total), longer sampling interval): about 48 hours
Tmax ([5]; cohort A or B, generally): ½
AUCall, Average ([5]; cohort A, 20 mg PO single dose): 339 ng·h/mL
AUCall, Max ([5]; cohort A, 20 mg PO single dose): 447 ng·h/mL
AUCall, Min ([5]; cohort A, 20 mg PO single dose): 241 ng·h/mL
Cmax, Average ([5]; cohort A, 20 mg PO single dose): 119 ng/mL
Cmax, Max ([5]; cohort A, 20 mg PO single dose): 182 ng/mL
Cmax, Min ([5]; cohort A, 20 mg PO single dose): 92 ng/mL
Half-Life, Average ([5]; cohort A, 20 mg PO single dose): 17.9 h
Half-Life, Max ([5]; cohort A, 20 mg PO single dose): 21.7 h
Half-Life, Min ([5]; cohort A, 20 mg PO single dose): 14.2 h
Tmax, Average ([5]; cohort A, 20 mg PO single dose): 0.5 h
Tmax, Max ([5]; cohort A, 20 mg PO single dose): 0.5 h
Tmax, Min ([5]; cohort A, 20 mg PO single dose): 0.5 h
AUCall, Average [5, 7]: 195 ng·h/mL
AUCall, Max [5, 7]: 400 ng·h/mL
AUCall, Min [5, 7]: 124 ng·h/mL
Cmax, Max [5, 7]: 46 ng/mL
Cmax, Min [5, 7]: 20 ng/mL
Half-Life, Average [5, 7]: 16.9 h
Half-Life, Max [5, 7]: 52.2 h
Half-Life, Min [5, 7]: 3.0 h
Tmax, Average [5, 7]: 2.55 h
Tmax, Max [5, 7]: 10.25 h
Tmax, Min [5, 7]: 0.5 h
lowest dosage that significantly reduces drug self-administration [3]: ≥ 10 mg/kg
